Laboratory results published in US8148117B2, “Microorganism and process for the preparation of L-methionine” (Evonik Degussa GmbH, priority 2005, dated 2012).
Read-outs that look alike come from different tables or passages of the source.

Experiments:
MetC [1] = target: MetC (Escherichia coli, UniProt P06721); conditions: Dwivedi et al. 1982, cited from earlier work
MetC [2] = target: T1, MetC (Corynebacterium glutamicum, UniProt Q93QC6); type: biochemical; conditions: for Cleavage by MetC: MetC added to MetB assay products after MetB removal, HPLC and photometric SH-group assay
T1 construct: His-Tag (N); made in house; host or cells: Escherichia coli
T1 sequence (Q93QC6 1-368): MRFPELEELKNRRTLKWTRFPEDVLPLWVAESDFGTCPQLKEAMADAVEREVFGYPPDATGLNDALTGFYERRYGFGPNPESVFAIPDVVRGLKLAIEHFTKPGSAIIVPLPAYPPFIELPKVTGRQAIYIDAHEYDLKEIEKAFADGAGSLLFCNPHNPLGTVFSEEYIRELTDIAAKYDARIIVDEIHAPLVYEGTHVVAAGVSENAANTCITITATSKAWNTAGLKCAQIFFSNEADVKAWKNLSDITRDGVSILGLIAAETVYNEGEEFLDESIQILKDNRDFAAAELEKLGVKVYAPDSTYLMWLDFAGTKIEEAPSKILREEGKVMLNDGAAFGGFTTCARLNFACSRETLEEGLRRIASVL
Protocol: (§1) Overexpression and purification of enzymes. MetB and MetC of C. glutamicum were cloned in the vector pQE30 (Qiagen). Expression with this vector comprises the addition of a His-Tag to the N-terminus of the expressed protein. Escherichia coli was transformed with the plasmid and selected by ampicillin resistance (100 μg/mL). Transformed E. coli was cultivated (100 μg/mL ampicillin, 37° C., 230 rpm) on terrific broth (Losen et al., Biotechnol Prog 2004, 204, 1062-8) and induced at an optical density of 1 (600 nm) by addition of 1 mM isopropyl thiogalactoside (final concentration). The cells were harvested by centrifugation (4225 g, 15 min, 2° C.) after 16 h of induced growth, washed and resuspended in phosphate buffer (100 mM, 100 μM pyridoxal phosphate, 1 mg/mL DNAse 1, pH 7.4 at 4° C.) and extracted by sonication (5×15 sec, 20 micron). The crude extracts were separated from cell debris by centrifugation (30 min, 2° C., and 20000 g). […] After the protein was applied to the column, it was washed with 10 vol. of 0.02 M sodium phosphate buffer. Elution was carried out with a linear gradient with 0.02 M sodium phosphate buffer (pH 7.4) containing 0.5 M NaCl and 0.5 M imidazol. The fractions containing the protein were checked for purity with SDS-PAGE and then pooled together. Imidazole was separated from the proteins by ultrafiltration.
In vitro assays of MetB and MetC. Activity of MetB and MetC was followed photometrically (Helios α, Thermo Electronic, Dreieich, Germany). Enzyme activities were measured by increase or decrease of free SH-groups using Ellman's reagent (Extinction at 412 nm) (Ellman and Lysko, 1979). The assay mixtures contained 1.25 mM cysteine or homocysteine and 3 mM O-acetyl homoserine for MetB-assays and 1.25 mM cystathionine or about 1.25 mM homolanthionine for MetC-assays. Homolanthionine was not commercially available. The MetC-assay was therefore carried out using the products of the MetB-assay. MetB was removed by ultrafiltration. Thus, the homolanthionine concentration could not be adjusted in the assays. […]

MetC [3] = target: MetC (Salmonella typhimurium, UniProt P18949); conditions: read-out: MetC Km; S. thyphimurium MetC; Dwivedi et al. 1982; cited from earlier work
MetC [4] = target: MetC (Bordetella avium, UniProt Q07703); conditions: read-out: MetC Km; B. avium MetC; Gentry-Weeks et al. 1993; cited from earlier work
MetB [5] = conditions: read-out: MetB Km; Spinach MetB; Ravanel et al. 1995; cited from earlier work
MetB [6] = target: MetB (Escherichia coli, UniProt P00935); conditions: E. coli MetB; Holbrook et al. 1990; cited from earlier work
MetB [7] = target: T2, MetB (Corynebacterium glutamicum, UniProt Q79VD9); assay: In vitro assay of MetB, Km from Lineweaver-Burk plots; type: biochemical; conditions: C. glutamicum MetB, with O-acetyl homoserine, this study
T2 sequence (Q79VD9 1-386): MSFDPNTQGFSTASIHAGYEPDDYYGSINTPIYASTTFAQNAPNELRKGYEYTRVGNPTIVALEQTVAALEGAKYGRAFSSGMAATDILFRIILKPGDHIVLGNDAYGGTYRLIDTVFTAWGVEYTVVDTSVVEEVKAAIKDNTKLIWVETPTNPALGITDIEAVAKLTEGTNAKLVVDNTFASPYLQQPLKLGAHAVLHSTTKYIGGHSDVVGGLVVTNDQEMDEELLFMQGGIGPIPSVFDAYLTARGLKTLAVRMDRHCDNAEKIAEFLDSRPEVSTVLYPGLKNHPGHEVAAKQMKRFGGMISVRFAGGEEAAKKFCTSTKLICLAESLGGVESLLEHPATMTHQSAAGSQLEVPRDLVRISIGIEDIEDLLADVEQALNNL
Protocol: as §1, with “The fractions containing the protein were checked for purity with SDS-PAGE and then pooled together. Imidazole was separated from the proteins by ultrafiltration.” left out
In vitro assays of MetB and MetC. […] Enzyme activities were measured by increase or decrease of free SH-groups using Ellman's reagent (Extinction at 412 nm) (Ellman and Lysko, 1979). […]

[8] = substrate: N[C@@H](CCS)C(=O)O; assay: purified protein, by the assay type; conditions: other: C. glutamicum MetB, with O-acetyl homoserine, this study; 37.0 °C

Sequence of MetC (Escherichia coli, UniProt P06721) (P06721 2-395): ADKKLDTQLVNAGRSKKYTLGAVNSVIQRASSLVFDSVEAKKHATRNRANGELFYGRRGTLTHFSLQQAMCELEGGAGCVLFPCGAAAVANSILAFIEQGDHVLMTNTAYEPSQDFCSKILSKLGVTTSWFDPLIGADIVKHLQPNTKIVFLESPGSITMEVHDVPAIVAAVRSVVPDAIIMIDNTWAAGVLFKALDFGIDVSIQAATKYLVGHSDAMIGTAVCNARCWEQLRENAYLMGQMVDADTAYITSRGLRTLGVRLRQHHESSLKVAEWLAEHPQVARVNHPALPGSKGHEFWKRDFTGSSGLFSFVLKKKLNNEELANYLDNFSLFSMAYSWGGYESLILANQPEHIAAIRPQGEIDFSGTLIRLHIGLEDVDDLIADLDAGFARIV
Sequence of MetC (Salmonella typhimurium, UniProt P18949) (P18949 whole entry): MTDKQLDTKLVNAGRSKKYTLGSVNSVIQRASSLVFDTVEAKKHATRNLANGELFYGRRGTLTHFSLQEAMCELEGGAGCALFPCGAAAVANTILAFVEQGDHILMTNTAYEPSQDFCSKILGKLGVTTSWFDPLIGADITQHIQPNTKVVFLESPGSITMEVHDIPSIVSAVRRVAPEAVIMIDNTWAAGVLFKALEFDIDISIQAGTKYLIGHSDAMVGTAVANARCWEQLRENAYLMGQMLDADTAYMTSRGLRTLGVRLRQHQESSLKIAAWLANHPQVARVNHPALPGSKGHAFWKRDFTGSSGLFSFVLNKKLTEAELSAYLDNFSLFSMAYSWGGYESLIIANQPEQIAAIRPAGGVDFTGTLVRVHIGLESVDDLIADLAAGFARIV
Sequence of MetB (Escherichia coli, UniProt P00935) (P00935 whole entry): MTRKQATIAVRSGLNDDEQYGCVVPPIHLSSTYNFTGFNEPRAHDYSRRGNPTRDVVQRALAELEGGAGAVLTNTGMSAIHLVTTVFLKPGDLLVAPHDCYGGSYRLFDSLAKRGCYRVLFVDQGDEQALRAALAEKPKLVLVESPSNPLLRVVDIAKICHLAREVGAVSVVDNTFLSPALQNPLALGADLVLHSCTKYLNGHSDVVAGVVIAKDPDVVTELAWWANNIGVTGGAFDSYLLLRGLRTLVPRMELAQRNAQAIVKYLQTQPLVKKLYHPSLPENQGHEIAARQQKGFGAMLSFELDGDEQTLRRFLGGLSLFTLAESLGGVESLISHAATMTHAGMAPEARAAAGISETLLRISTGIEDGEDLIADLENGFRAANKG
Sequence of MetC (Bordetella avium, UniProt Q07703) (Q07703 whole entry): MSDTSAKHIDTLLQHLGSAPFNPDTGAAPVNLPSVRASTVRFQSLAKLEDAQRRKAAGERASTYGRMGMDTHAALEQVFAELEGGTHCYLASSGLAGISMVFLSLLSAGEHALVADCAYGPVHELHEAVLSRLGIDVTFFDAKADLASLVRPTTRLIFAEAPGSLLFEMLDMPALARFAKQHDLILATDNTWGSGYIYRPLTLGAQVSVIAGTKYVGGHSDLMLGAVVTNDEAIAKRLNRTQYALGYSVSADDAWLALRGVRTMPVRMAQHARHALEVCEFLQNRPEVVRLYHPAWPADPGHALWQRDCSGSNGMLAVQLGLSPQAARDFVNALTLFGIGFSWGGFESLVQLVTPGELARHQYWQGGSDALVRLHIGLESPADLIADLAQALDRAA

For `N[C@@H](CCSC[C@H](N)C(=O)O)C(=O)O` [L-cystathionine], which Km (MetC [1]; E. coli MetC) is on record?
Its Km is 40 µM.

What about the Km (MetC [2]; C. glutamicum MetC, this study) of the same molecule?
Its Km is 107 µM.

What about the “Cleavage by MetC” value (MetC [2]) of the same molecule?
Its value is “complete cleavage”.

And the Km (MetC [3])?
The Km was 220 µM.

And the Km (MetC [4])?
Its Km is 70 µM.

With `N[C@@H](CS)C(=O)O` [L-cysteine] as the molecule, how does the Km (MetB [5]) read?
The Km was 180 µM.

What about the Km (MetB [6]) of the same molecule?
The Km was 50 µM.

And the Km (MetB [7])?
Its Km is 258 µM.

For `N[C@@H](CCSCC[C@H](N)C(=O)O)C(=O)O` [L-homolanthionine, S-[(3S)-3-amino-3-carboxypropyl]-L-homocysteine], which Km (MetC [1]; E. coli MetC) is on record?
Its Km is 4540 µM.

What about the Km (MetC [1]; E. coli cystathionase) of the same molecule?
The Km was 4500 µM.

And the “Cleavage by MetC” value (MetC [2])?
The value was “only poorly cleaved”.

B1: MetB (Corynebacterium glutamicum ATCC 13032) (protein)
chain: T2 sequence (Q79VD9 1-386)
For B1, which Km [8] is on record?
The Km was 541 µM.
